In experiment [1] the target is T1, CDK1 (cyclin B) (Homo sapiens, UniProt P06493).
T1 construct: purchased Invitrogen Life Technologies (assay service)
Kind of experiment: Z'-LYTE kinase assay. Type of experiment: biochemical. How it is done:
The plates were shaken for 30 seconds, and incubated for 60 minutes at room temperature. […] The plates were read on fluorescence plate reader with Dual emission at 445 nm and 520 nm.
The following equations were used for Z′-LYTE™ Screening Assay Data Analysis.

The target of experiment [2] is T2, PI3Kδ kinase (Homo sapiens, UniProt O00329).
T2 construct: purchased Reaction Biology Corporation (assay service)
T2 sequence (O00329 whole entry): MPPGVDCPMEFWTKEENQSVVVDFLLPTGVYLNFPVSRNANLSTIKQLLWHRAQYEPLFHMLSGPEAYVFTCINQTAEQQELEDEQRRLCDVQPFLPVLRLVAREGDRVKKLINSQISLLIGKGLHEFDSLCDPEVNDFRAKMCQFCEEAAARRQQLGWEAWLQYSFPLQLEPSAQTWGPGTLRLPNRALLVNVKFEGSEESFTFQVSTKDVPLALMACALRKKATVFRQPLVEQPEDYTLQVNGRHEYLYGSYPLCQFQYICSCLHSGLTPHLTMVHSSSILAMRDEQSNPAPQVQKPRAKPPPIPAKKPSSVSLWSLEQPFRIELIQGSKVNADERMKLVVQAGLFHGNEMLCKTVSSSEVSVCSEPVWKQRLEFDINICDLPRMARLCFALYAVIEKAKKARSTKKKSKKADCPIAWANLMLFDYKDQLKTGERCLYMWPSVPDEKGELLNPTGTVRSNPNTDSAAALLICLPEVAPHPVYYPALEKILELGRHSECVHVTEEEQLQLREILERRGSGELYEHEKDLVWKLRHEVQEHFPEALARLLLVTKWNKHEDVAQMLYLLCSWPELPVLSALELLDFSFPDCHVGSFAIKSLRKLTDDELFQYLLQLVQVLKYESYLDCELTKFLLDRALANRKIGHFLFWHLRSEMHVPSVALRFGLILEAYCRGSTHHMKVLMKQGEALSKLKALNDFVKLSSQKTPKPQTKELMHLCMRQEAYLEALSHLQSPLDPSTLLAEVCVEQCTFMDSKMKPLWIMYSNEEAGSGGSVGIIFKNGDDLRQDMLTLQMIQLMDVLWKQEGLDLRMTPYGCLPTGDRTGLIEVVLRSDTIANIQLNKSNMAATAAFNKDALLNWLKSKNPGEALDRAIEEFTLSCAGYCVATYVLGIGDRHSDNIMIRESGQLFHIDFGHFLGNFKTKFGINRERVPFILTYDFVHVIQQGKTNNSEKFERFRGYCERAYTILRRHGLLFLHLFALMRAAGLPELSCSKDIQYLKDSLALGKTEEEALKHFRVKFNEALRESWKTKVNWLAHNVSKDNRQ
T2 sequence (P27986 whole entry partner): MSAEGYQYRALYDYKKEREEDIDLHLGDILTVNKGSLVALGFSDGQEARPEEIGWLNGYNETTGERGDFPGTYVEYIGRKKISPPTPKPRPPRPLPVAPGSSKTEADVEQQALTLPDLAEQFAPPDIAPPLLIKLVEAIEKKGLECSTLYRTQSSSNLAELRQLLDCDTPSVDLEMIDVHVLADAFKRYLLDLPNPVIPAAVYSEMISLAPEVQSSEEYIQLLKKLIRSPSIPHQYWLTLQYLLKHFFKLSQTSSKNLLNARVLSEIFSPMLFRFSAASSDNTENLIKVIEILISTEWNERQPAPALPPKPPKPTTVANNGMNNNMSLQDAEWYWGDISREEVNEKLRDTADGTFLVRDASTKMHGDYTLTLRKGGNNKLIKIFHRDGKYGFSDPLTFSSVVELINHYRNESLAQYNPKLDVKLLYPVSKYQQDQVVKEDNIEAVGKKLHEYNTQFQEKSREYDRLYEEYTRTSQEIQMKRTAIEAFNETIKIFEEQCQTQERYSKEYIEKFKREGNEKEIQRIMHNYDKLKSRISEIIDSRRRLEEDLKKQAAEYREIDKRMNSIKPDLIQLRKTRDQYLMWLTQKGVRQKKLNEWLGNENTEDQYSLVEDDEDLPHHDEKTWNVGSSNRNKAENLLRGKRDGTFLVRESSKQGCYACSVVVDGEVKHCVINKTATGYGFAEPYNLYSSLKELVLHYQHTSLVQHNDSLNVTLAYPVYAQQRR
Kind of experiment: PI3Kδ kinase assay (ADP-Glo, Reaction Biology). Type of experiment: biochemical. The gist of the method: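 Kinase in Tris-HCl 40 mM pH 7.5, MgCl2 20 mM, orthovanadate 3 mM, DTT 2 mM, 0.05% CHAPS, 1% DMSO, preincubated 10 min at room temperature with compound (about 0.5 nM–100 μM). ATP started a 30-min reaction at 30 °C. ADP-Glo luminescence converted to μM ADP via standard curve; IC50 from nonlinear regression.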

The target in experiment [3] is T3, FMS kinase (Homo sapiens, UniProt P07333).
T3 construct: purchased Invitrogen (Life Technologies)
T3 sequence (P07333 20-972): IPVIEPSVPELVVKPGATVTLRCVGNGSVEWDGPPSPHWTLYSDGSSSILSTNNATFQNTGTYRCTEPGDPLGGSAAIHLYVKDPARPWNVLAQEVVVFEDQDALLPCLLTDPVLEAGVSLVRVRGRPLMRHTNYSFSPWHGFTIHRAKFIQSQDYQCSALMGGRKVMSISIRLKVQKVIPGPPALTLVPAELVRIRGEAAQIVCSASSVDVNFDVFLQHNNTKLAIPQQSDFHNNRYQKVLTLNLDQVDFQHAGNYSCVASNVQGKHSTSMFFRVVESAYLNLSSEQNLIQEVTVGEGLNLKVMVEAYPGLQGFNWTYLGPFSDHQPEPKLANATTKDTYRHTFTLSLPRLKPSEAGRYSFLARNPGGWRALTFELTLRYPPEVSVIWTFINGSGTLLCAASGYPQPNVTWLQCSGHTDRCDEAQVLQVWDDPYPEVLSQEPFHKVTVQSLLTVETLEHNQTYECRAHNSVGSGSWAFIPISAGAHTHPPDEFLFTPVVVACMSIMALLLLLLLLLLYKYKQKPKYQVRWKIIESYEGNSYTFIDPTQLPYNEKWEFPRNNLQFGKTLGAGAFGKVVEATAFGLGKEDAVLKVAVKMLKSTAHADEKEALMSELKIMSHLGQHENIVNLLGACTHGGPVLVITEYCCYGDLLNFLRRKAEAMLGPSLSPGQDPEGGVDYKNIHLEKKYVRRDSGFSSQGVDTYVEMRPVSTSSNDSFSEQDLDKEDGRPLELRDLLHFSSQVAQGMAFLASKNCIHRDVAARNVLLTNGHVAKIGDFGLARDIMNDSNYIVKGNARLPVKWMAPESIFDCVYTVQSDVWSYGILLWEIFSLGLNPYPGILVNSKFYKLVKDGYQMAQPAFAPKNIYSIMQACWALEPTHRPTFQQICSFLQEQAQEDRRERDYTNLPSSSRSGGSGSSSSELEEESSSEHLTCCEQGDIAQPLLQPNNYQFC
Kind of experiment: LanthaScreen Eu Kinase Binding Assay (ATP, fluorescent-PolyGT substrate). Format: biochemical. The gist of the method: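 Kinase (1.25 nM) preincubated 10 min with 3-fold compound dilutions, then ATP 10 μM and fluorescent PolyGT substrate 200 nM added for 1 h in the dark at room temperature. Stopped with Tb-antibody (4 nM) and EDTA 20 mM; TR-FRET at 340 nm excitation, 495/520 nm emission; IC50 from four-parameter fit.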

Experiment [4] concerns DU4475 breast carcinoma cells. The experiment in a line: Cancer cell proliferation assay, single agent (cell viability). The settings on record: Homo sapiens, DU-4475; Table 4; Rb negative; treatment 144 Hr with medium change at 72 Hr; Cell Titer-Glo or resazurin. Type of experiment: cell-based. The gist of the method:
(§1)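 Cells seeded day 1, then exposed on day 2 to 7–9 compound concentrations (e.g. 1.1 nM–10 μM); BT-549 for 24 h, MCF-7 and DU4475 for 144 h with medium change at 72 h. Viability by CellTiter-Glo or resazurin; IC50 from variable-slope sigmoidal fit.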

For experiment [5], the system named is MCF-7 breast adenocarcinoma cells. The experiment is described as above. Format: cell-based. Conditions: Homo sapiens, MCF7, Table 4; Rb positive; treatment 144 Hr with medium change at 72 Hr; Cell Titer-Glo or resazurin. The gist of the method: as §1
Experiment [6] has as its target T4, CDK2 (cyclin A) (Homo sapiens, UniProt P24941).
T4 construct: purchased Invitrogen Life Technologies (assay service)
Kind of experiment: Z'-LYTE kinase assay. Type of experiment: biochemical. In outline: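 FRET-based Z′-LYTE read-out using 1.22–10.3 ng CDK2/cyclin A with Ser/Thr 12 peptide (2 μM in the 2× mix) and ATP (31 μM as the 4× solution), in HEPES pH 7.5, MgCl2, EGTA and BRIJ-35, for 60 min at room temperature. After 1 h of development, the 445/520 nm emission was read, and percent inhibition was fitted to a four-parameter logistic curve for IC50.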

Experiment [7] concerns the target T5, CDK4 (Homo sapiens, UniProt P11802).
T5 construct: purchased Invitrogen PR8064A
Kind of experiment: In vitro kinase inhibition IC50, luminescence (ADP Glo), retinoblastoma substrate. Type of experiment: biochemical. Conditions: read-out: CDK4/D1 IC50. The gist of the method: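 CDK4 enzyme (5 nM, Invitrogen) was combined with test compound and a mix of retinoblastoma substrate (1 μM) plus ATP (25 μM) in kinase buffer, 30 μL/well in 96-well half area white plates. After 2H at room temperature, ADP Glo reagent stopped the reaction for 45 min, then detection reagent was added and luminescence was read.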

The target in experiment [8] is T6, CDK6 (Homo sapiens, UniProt Q00534).
T6 construct: purchased Invitrogen PR8422B
T6 sequence (Q00534 whole entry): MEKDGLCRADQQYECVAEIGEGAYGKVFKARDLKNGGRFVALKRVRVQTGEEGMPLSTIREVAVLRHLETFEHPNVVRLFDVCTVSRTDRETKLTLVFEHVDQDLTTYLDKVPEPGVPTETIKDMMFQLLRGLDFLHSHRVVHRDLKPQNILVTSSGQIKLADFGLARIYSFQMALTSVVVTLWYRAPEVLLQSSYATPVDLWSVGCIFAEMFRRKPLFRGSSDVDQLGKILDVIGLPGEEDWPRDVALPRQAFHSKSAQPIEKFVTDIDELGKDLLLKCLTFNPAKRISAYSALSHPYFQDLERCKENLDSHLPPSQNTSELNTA
T6 sequence (P24385 whole entry partner): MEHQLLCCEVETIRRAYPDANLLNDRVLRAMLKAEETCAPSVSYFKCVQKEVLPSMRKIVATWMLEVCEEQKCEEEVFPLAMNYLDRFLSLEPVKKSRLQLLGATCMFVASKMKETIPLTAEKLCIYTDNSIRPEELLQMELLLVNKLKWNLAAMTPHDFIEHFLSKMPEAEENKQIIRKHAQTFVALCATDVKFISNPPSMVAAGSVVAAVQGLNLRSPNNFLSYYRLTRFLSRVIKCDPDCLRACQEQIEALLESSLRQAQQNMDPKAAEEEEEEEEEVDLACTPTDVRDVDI
Described as above. The settings on record: read-out: CDK6/D1 IC50. Format: biochemical. The gist of the method: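 Recombinant CDK6 (5 nM) with retinoblastoma substrate (1 μM) and 25 μM ATP, compound at final 0.1–200 nM, incubated 2 h at room temperature. ADP formed detected by ADP-Glo luminescence. IC50 from four-parameter logistic fit of percent inhibition.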

Like-named read-outs stand apart in the source and are kept apart here.

T5 sequence (P11802 whole entry): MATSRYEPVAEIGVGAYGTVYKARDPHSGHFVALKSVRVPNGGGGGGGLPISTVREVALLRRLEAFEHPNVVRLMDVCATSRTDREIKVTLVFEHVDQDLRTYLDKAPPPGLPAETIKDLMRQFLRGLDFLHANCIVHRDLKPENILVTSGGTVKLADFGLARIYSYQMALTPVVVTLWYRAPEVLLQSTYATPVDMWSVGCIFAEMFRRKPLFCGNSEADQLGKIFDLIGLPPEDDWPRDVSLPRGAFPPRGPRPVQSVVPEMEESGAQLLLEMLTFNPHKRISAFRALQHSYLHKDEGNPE
T5 sequence (P24385 whole entry partner): as the sequence (P24385 whole entry partner) above
T1 sequence (P06493 whole entry): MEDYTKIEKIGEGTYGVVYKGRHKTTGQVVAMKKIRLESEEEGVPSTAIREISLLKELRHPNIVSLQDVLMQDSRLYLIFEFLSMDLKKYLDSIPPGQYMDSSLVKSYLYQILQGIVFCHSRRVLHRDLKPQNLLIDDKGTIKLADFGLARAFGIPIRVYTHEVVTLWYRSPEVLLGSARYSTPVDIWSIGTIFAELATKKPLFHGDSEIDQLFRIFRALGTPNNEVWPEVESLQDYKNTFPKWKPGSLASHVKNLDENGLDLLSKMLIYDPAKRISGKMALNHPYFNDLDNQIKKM
T1 sequence (P14635 whole entry partner): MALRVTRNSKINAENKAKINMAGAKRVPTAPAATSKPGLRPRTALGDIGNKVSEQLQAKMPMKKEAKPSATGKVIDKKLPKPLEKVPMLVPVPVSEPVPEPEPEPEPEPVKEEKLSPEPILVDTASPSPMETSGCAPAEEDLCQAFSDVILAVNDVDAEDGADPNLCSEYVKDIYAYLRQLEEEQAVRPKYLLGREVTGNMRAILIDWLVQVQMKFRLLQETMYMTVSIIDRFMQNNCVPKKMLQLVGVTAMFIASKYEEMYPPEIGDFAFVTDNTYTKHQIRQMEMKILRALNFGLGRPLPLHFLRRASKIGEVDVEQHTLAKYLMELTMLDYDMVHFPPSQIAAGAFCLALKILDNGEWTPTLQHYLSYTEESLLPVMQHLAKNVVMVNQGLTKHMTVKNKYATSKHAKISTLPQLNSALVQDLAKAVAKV

For the compound `N#Cc1cc2cnc(Nc3ccc4c(c3)CCNC4)nc2n(C2COCC2O)c1=O` (centres unmarked) [Compound No. 101, 8-(4-hydroxytetrahydrofuran-3-yl)-7-oxo-2-((1,2,3,4-tetrahydroisoquinolin-6-yl)amino)-7,8-dihydropyrido[2,3-d]pyrimidine-6-carbonitrile], the IC50 is greater than 5000 nM in experiment [1] (read-out: CDK1/B IC50); 7770 nM in experiment [2]; 55 nM in experiment [3]; greater than 30000 nM in experiment [4]; greater than 30000 nM in experiment [5]; 1740 nM in experiment [6]. The IC50 in experiment [7] and in experiment [8] was greater than 200 nM each time.

In the case of `CN(C)C1CCc2ccc(Nc3ncc4cc(C#N)c(=O)n(C5CCCC5)c4n3)cc2C1` (centres unmarked) [Compound No. 48, 8-cyclopentyl-2-((7-(dimethylamino)-5,6,7,8-tetrahydronaphthalen-2-yl)amino)-7-oxo-7,8-dihydropyrido[2,3-d]pyrimidine-6-carbonitrile], the IC50 in experiment [1] (read-out: CDK1/B IC50) was 488 nM; in experiment [2], 945 nM; in experiment [3], 3 nM; in experiment [5], 945 nM; in experiment [6], 140 nM; in experiment [7], 14 nM. In addition, in experiment [8], the IC50 came out at 6 nM.

Regarding `N#Cc1cc2cnc(NC3CCN(S(=O)(=O)C4CC4)CC3)nc2n(C2CCCC2)c1=O` [Compound No. 356, 8-cyclopentyl-2-((1-(cyclopropylsulfonyl)piperidin-4-yl)amino)-7-oxo-7,8-dihydropyrido[2,3-d]pyrimidine-6-carbonitrile], the IC50 in experiment [1] worked out at 55 nM; in experiment [2], 19900 nM; in experiment [3], 55 nM; in experiment [4], 1140 nM; in experiment [5] it was 175 nM; in experiment [6], 5.5 nM. The IC50 is 2 nM in experiment [7] and 4.5 nM in experiment [8].

As for `CS(=O)(=O)N1CCC(Nc2ncc3cc(C#N)c(=O)n(C4CCCCC4)c3n2)CC1` [Compound No. 367, 8-cyclohexyl-2-((1-(methylsulfonyl)piperidin-4-yl)amino)-7-oxo-7,8-dihydropyrido [2,3-d] pyrimidine-6-carbonitrile], the IC50 came to 2920 nM in experiment [1]; 539 nM in experiment [2]; 102 nM in experiment [3]; 5160 nM in experiment [4]; 640 nM in experiment [5]; 308 nM in experiment [6]. Further, the IC50 in experiment [7] worked out at 55 nM; in experiment [8] it was 7.4 nM.

On to `CCS(=O)(=O)N1CCC(Nc2ncc3cc(C#N)c(=O)n(C4CCCC4)c3n2)CC1` [Compound No. 357, 8-cyclopentyl-2-((1-(ethylsulfonyl)piperidin-4-yl)amino)-7-oxo-7,8-dihydropyrido[2,3-d]pyrimidine-6-carbonitrile], for which the IC50 in experiment [1] was 230 nM; in experiment [2] it was greater than 25300 nM; in experiment [3] it was 490 nM; in experiment [4], 1300 nM; in experiment [5], 190 nM; in experiment [6] it was 11 nM. Further, the IC50 in experiment [7] turned out to be 2.7 nM; in experiment [8] it was 5.8 nM.

As for `N#Cc1cc2cnc(Nc3ccc4c(c3)CCNC4)nc2n(C2CCCC2O)c1=O` (centres unmarked) [Compound No. 346, 8-(2-hydroxycyclopentyl)-7-oxo-2-((1,2,3,4-tetrahydroisoquinolin-6-yl)amino)-7,8-dihydropyrido[2,3-d]pyrimidine-6-carbonitrile], the IC50 in experiment [1] (read-out: CDK1/B IC50) is greater than 5000 nM; in experiment [2] it was 10200 nM; in experiment [3], 18 nM; in experiment [4], 10100 nM; in experiment [5] it was greater than 30000 nM; in experiment [6], 177 nM. Moreover, the IC50 is greater than 200 nM in experiment [7] and 57 nM in experiment [8].

As for `CN(C)S(=O)(=O)N1CCC(Nc2ncc3cc(C#N)c(=O)n(C4CCCC4)c3n2)CC1` [Compound No. 366, 4-((6-cyano-8-cyclopentyl-7-oxo-7,8-dihydropyrido[2,3-d]pyrimidin-2-yl)amino)-N,N-dimethylpiperidine-1-sulfonamide], the IC50 in experiment [1] is 2930 nM; in experiment [2] it was greater than 48200 nM; in experiment [3], 925 nM; in experiment [4] it was 2410 nM; in experiment [5], 320 nM; in experiment [6], 151 nM. Also, the values for the IC50 in experiment [7] and in experiment [8] were 22 nM and 4.5 nM, respectively.

Turning to `CS(=O)(=O)N1CCC[C@@H](Nc2ncc3cc(C#N)c(=O)n(C4CCCC4)c3n2)C1` [Compound No. 365, (R)-8-cyclopentyl-2-((1-(methylsulfonyl)piperidin-3-yl)amino)-7-oxo-7,8-dihydropyrido[2,3-d]pyrimidine-6-carbonitrile], the IC50 is greater than 5000 nM in experiment [1] (read-out: CDK1/B IC50); 1710 nM in experiment [2]; 311 nM in experiment [3]; 5630 nM in experiment [4]; 1260 nM in experiment [5]; 1240 nM in experiment [6]. Also, the values for the IC50 in experiment [7] and in experiment [8] were 167 nM and greater than 200 nM, respectively.

`CCOCCCn1c(=O)c(C#N)cc2cnc(Nc3ccc4c(c3)CCNC4)nc21` [Compound No. 343, 8-(3-ethoxypropyl)-7-oxo-2-((1,2,3,4-tetrahydroisoquinolin-6-yl)amino)-7,8-dihydropyrido[2,3-d]pyrimidine-6-carbonitrile]: the IC50 in experiment [1] (read-out: CDK1/B IC50) is greater than 5000 nM; in experiment [2], 770 nM; in experiment [3], 6.5 nM; in experiment [4], 5720 nM; in experiment [5] it was 1280 nM; in experiment [6], greater than 3120 nM. For the same compound, the IC50 in experiment [7] and in experiment [8] was greater than 200 nM throughout.

As to `N#Cc1cc2cnc(Nc3ccc4c(c3)C(=O)NCC4)nc2n(C2CCCC2)c1=O` [Compound No. 6, 8-cyclopentyl-7-oxo-2-((1-oxo-1,2,3,4-tetrahydroisoquinolin-7-yl)amino)-7,8-dihydropyrido[2,3-d]pyrimidine-6-carbonitrile], the IC50 is greater than 4650 nM in experiment [1] (read-out: CDK1/B IC50); 163 nM in experiment [2]; less than 1 nM in experiment [3]; 1160 nM in experiment [5]; 873 nM in experiment [6]; 8 nM in experiment [7]. Moreover, in experiment [8], the IC50 is 2 nM.

Take `N#Cc1cc2cnc(Nc3ccc4c(c3)CCNC4)nc2n(C2CCC(F)(F)C2)c1=O` (centres unmarked) [Compound No. 344, 8-(3,3-difluorocyclopentyl)-7-oxo-2-((1,2,3,4-tetrahydroisoquinolin-6-yl)amino)-7,8-dihydropyrido[2,3-d]pyrimidine-6-carbonitrile]: the IC50 is greater than 4670 nM in experiment [1] (read-out: CDK1/B IC50); 1630 nM in experiment [2]; 3.5 nM in experiment [3]; 960 nM in experiment [4]; 435 nM in experiment [5]; 201 nM in experiment [6]. Moreover, the IC50 was 77.5 nM in experiment [7] and 64 nM in experiment [8].

Take `CS(=O)(=O)N1CCC[C@H](Nc2ncc3cc(C#N)c(=O)n(C4CCCC4)c3n2)C1` [Compound No. 364, (S)-8-cyclopentyl-2-((1-(methylsulfonyl)piperidin-3-yl)amino)-7-oxo-7,8-dihydropyrido[2,3-d]pyrimidine-6-carbonitrile]: the IC50 in experiment [1] (read-out: CDK1/B IC50) was greater than 5000 nM; in experiment [2] it was 825 nM; in experiment [3], 64 nM; in experiment [4], 5660 nM; in experiment [5], 3330 nM; in experiment [6], greater than 5000 nM. Moreover, the IC50 in experiment [7] and in experiment [8] was greater than 200 nM each time.

As for `CS(=O)(=O)N1CCC(Nc2ncc3cc(C#N)c(=O)n(C4CCC4)c3n2)CC1` [Compound No. 368, 8-cyclobutyl-2-((1-(methylsulfonyl)piperidin-4-yl)amino)-7-oxo-7,8-dihydropyrido [2,3-d] pyrimidine-6-carbonitrile], the IC50 worked out at 331 nM in experiment [1]; 1980 nM in experiment [2]; 1390 nM in experiment [4]; 405 nM in experiment [5]; 28 nM in experiment [6]; 34 nM in experiment [7]. Moreover, in experiment [8], the IC50 was 3.4 nM.

Source of the values: US20220273659A1, “HETEROCYCLIC COMPOUNDS AS KINASE INHIBITORS” (NUVATION BIO INC., priority 2019, published 2022).
